Measurements from US9585380B2, “SSAT mRNA translation repression and activation” (TEMPLE UNIVERSITY—Of The Commonwealth System of Higher …, priority 2011, dated 2017).

What was measured:
SSAT translation [1] = assay: Reporter system: 5′ UTR lacking uORFs + SSAT coding sequence-luciferase chimeric construct in HEK293T cells; type: cell-based, human; settings: wild-type SSAT-luciferase construct, luciferase 16 hours after addition, compared to untreated
Protocol: A chimeric construct (FIG. 15A) comprising a fragment of the 5′ UTR of SSAT lacking the uORF's (see FIG. 7), the SSAT coding sequence (see FIG. 8B), and the luciferase coding sequence was prepared. The SSAT coding sequence is linked in-frame to the luciferase coding sequence. The construct was prepared using appropriate primers and template nucleic acid, and conventional PCR methods. The construct was cloned into pLEX-MCS. To evaluate the effect of small molecules on translation of the chimeric construct, the chimeric construct was transiently transfected into HEK293T cells. The small molecule to be tested was added 24 hours after transfection of the vector. Luciferase activity was evaluated 16 hours after the addition of the small molecule using the ONE-Glo™ Luciferase Assay System (Promega, Madison, Wis.). The luminescence intensity was determined using a GloMax® luminometer (Promega).
In view of the discovery of the contribution of uORF's on translational repression of SSAT mRNA, a reporter system was developed to detect pharmacophores that can modulate SSAT translation. The reporter system is a chimeric construct comprising a 5′ UTR lacking the uORF's and the SSAT coding sequence linked in-frame to the luciferase coding sequence. (FIG. 15A). The 5′ UTR comprises 66 nucleotides of the native 5′UTR immediately upstream of the starting AUG codon.
Release of translational repression of the chimeric construct was tested in the presence of several small molecules. Release of translational repression was assessed by detection of luciferase activity. The small molecules tested were: DENSPM and three uncharacterized polyamine analogs designated polyamine analog 1; polyamine analog 2; and polyamine analog 3. Cisplatin and 5-FU were tested as negative controls.

SSAT translation [2] = assay: DENSPM dose response curve with mutant 6 chimeric construct; type: cell-based, human; settings: mutant 6 construct, DENSPM 0.08 μM to 40 μM, HEK293T
Protocol: The chimeric construct to be tested was transiently transfected into HEK293T cells. Twenty-four hours after transfection of the vector, DENSPM was added to the desired final concentration (ranged from 0.08 micromolar to 40 micromolar). Luciferase activity was evaluated 16 hours after the addition of DENSPM using the ONE-Glo™ Luciferase Assay System. The luminescence intensity was determined using a GloMax® luminometer (Promega). The experiment was run in triplicates to obtain error bars and evaluate reproducibility.
A dose response experiment was performed using the mutant 6 chimeric construct. Specifically, the stimulation of mutant 6 translation by ten different concentrations of DENSPM was assayed. The DENSPM concentrations ranged from 0.08 micromolar (μM) to 40 μM. The dose response curve is depicted in FIG. 20.

nucleolin = settings: HEK293T exposed to 2 mM spermine for 12 hours versus controls
Protocol: In addition, a sample of RNA-interacting proteins obtained from a Sepharose-streptomycin-chimeric RNA column described above was subjected to the same 2DE separation. The sample was initially concentrated to 30 μL using a Nanosep 3000 (Pall Corp) and dialyzed with 0.1×PBS for 12 h using a Slide-A-Lyzer 7K mini unit (Pierce Biotech). After separation by 2DE, the proteins were transferred to a nitrocellulose membrane using a Mini Trans Blot System (Biorad) and were Western blotted using anti-nucleolin monoclonal antibody.

SSAT translation [3] = test system: SSAT translation

| Compound | Release of translational repression of the chimeric construct (luciferase activity) (SSAT translation [1]) | Dose dependency of stimulation of translation of SSAT mRNA having CGC encoding Arg142 (SSAT translation [2]) | 55 KDa nucleolin isoform (2D-PAGE Western blot) (nucleolin) | SSAT expression (Western blot) (SSAT translation [3]; constructs with or without uORFs, presence of spermine) | Repression of eGFP expression by the SSAT stem loop (Loop eGFP, Western blot) (SSAT translation [3]; exogenous spermine, HEK293T) |
| --- | --- | --- | --- | --- | --- |
| CCNCCCNCCCNCCCNCC [DENSPM, N^1-N^11 diethylnorspermine] | relieved | dose dependency over at least two orders of magnitude |  |  |  |
| NCCCNCCCCNCCCN [spermine] |  |  | absent | stimulated expression | partially reversed |
